Broadly, the IC50 is the concentration that gives 50% inhibition.

For the assay, the target named is T1, recombinantly expressed human sodium-dependent ileal bile acid transporter (IBAT) (Homo sapiens, UniProt Q12908).
T1 construct: Bases 599 to 1645 correspond to the complete coding region of the human IBAT; expressed in transfected cells
T1 sequence (Q12908 1-348): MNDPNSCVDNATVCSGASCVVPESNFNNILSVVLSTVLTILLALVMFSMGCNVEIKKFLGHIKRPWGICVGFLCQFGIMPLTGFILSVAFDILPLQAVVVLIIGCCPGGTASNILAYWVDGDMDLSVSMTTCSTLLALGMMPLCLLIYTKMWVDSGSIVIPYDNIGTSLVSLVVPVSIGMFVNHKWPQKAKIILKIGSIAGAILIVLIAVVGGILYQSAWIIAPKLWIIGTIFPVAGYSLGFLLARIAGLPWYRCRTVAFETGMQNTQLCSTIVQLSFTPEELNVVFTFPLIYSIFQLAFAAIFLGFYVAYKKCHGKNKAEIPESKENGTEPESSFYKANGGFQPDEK
In words: in vitro IBAT inhibition test ([3H]-taurocholic acid uptake into CHO-hIBAT cells). It is filed as cell-based. Conditions: for IC50: CHO-hIBAT cells, taurocholic acid 10 μM, 60 min at room temperature. Here is the method: Biological testing of the compound A according to the invention was carried out using the in vitro IBAT inhibition test. This test examines the effect of the compound according to the invention on the transport activity of the recombinantly expressed human sodium-dependent ileal bile acid transporter (IBAT=ileal Na^+/bile acid contransporter, ASBT=apical sodium-dependent bile acid transporter, SLC10A2=solute carrier family 10, member 2).
The cDNA (complementary deoxyribonucleic acid) of human IBAT was cloned using standard methods of molecular biology as described, for example, in Molecular Cloning: A Laboratory Manual, by Joseph Sambrook and David Russell, and introduced into the pcDNA1 vector from Invitrogen. […] Bases 599 to 1645 correspond to the complete coding region of the human IBAT.
The expression vector for the human IBAT was introduced by means of stable transfection into CHO (Chinese hamster ovary) cells. To select single cell clones, 400 μg/ml of geneticin was added to the cell culture medium (Ham's F12 medium supplemented with 10% fetal calf serum, 100 units/ml of penicillin, 100 units/ml of streptomycin). The functionality of the single cell clones resulting from the selection was tested via their uptake activity for radioactively labeled taurocholic acid ([^3H]-TCA). […]
CHO-hIBAT cells were sown at a concentration of 40 000 cells per well in cell culture medium in poly-D-lysine-coated 96-well plates and cultivated for 24 h. […] Finally, 100 μl of scintillation fluid were added to each well, and the radioactivity taken up into the cells was determined in a MicroBeta scintillation microplate reader from Wallac.
The half-maximal inhibitory effect of the test compound (IC50 value, inhibitory concentration 50) was determined as follows:
1. […] This is the value measured in the absence of substance, measured in sodium-comprising transport assay buffer.
2. […] This is the value measured in the absence of substance, measured in sodium-free transport assay buffer. […]

Consider `CCCCC1(CCCC)CS(=O)(=O)c2ccc(N(C)C)cc2[C@@H](c2cccc(NC(=O)NC[C@H](O)[C@@H](O)[C@H](O)[C@H](O)CO)c2)N1` [Example A], for which the IC50 amounted to 155 nM. Moreover, the “activity compared to comparative example from EP 1 169 313 (higher)” value (relative to compound 11a of EP 1 169 313, from IC50 (human IBAT)) is recorded as 206%.
As for `CCCCC1(CCCC)CS(=O)(=O)c2ccc(N(C)C)cc2[C@@H](c2cccc(NC(=O)[C@H](O)[C@@H](O)[C@H](O)[C@H](O)CO)c2)N1` [compound 11a, reference compound], the IC50 worked out at 319 nM.

Source of the values: patent US20080207592A1, “Novel 1,4-benzothiazepine-1,1-dioxide derivative having improved properties, method for the production thereof, medicaments containing said compound, and use thereof” (SANOFI-AVENTIS DEUTSCHLAND GMBH, priority 2005, published 2008).
